Assays:
Assay type in all cases: biochemical
Itk = target: T1, Itk (Homo sapiens, UniProt Q08881); test: Kinase inhibition assay (33P transfer), Itk; conditions: Table 3; read-out: Itk-1
T1 construct: Kinases are expressed as either kinase domains or full length constructs; made in house
T1 sequence (Q08881 1-620): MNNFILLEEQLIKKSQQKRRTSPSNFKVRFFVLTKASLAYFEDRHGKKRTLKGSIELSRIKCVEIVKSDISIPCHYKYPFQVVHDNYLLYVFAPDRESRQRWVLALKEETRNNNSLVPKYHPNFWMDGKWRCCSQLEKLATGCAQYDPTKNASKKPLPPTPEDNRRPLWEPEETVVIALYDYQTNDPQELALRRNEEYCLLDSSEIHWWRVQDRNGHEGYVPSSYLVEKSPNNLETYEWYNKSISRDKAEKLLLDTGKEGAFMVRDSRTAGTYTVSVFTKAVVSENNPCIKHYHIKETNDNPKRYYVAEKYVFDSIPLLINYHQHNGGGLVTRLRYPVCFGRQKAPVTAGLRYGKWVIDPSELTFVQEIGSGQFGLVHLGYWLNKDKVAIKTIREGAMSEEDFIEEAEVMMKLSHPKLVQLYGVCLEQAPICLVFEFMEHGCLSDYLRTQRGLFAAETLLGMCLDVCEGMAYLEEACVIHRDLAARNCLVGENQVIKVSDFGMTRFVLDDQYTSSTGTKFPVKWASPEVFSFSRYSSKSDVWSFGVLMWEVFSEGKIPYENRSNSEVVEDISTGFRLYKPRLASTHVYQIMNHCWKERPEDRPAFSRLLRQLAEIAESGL
In short: (§1)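 Recombinant kinase domains or full-length GST- or His-tagged constructs, from E. coli or baculovirus/High Five cells, sometimes with regulatory polypeptides. Transfer of 33P from ATP to plate-bound poly(Glu,Tyr) 4:1 or poly(Arg,Ser) 3:1 counted by liquid scintillation after phosphoric acid wash; IC50 is the concentration halving incorporation.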

Src = target: T2, Src (Homo sapiens, UniProt P12931); test: Kinase inhibition assay (33P transfer), Src; conditions: Table 6, Src-1 kinase inhibition class
T2 construct: Kinases are expressed as either kinase domains or full length constructs; made in house
T2 sequence (P12931 whole entry, species assumed, the tested form may be a part): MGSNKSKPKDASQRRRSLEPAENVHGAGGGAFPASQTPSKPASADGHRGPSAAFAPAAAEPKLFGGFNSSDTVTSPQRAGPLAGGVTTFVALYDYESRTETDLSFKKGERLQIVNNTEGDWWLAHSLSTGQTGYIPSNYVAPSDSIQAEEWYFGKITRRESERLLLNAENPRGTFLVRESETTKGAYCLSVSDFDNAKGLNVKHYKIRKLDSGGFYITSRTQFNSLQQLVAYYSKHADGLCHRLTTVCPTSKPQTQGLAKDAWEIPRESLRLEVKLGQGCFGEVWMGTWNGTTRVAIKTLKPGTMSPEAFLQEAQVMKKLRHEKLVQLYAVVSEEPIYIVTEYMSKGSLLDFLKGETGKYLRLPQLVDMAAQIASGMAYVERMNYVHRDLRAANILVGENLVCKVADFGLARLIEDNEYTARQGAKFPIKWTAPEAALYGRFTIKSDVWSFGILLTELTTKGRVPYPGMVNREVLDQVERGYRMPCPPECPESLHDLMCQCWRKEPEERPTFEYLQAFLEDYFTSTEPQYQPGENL
In short: as §1

Kdr = target: T3, Kdr (Homo sapiens, UniProt P35968); test: Kinase inhibition assay (33P transfer), Kdr; conditions: Table 3; read-out: KDR-1
T3 construct: Kinases are expressed as either kinase domains or full length constructs; made in house
T3 sequence (P35968 20-1356, species assumed): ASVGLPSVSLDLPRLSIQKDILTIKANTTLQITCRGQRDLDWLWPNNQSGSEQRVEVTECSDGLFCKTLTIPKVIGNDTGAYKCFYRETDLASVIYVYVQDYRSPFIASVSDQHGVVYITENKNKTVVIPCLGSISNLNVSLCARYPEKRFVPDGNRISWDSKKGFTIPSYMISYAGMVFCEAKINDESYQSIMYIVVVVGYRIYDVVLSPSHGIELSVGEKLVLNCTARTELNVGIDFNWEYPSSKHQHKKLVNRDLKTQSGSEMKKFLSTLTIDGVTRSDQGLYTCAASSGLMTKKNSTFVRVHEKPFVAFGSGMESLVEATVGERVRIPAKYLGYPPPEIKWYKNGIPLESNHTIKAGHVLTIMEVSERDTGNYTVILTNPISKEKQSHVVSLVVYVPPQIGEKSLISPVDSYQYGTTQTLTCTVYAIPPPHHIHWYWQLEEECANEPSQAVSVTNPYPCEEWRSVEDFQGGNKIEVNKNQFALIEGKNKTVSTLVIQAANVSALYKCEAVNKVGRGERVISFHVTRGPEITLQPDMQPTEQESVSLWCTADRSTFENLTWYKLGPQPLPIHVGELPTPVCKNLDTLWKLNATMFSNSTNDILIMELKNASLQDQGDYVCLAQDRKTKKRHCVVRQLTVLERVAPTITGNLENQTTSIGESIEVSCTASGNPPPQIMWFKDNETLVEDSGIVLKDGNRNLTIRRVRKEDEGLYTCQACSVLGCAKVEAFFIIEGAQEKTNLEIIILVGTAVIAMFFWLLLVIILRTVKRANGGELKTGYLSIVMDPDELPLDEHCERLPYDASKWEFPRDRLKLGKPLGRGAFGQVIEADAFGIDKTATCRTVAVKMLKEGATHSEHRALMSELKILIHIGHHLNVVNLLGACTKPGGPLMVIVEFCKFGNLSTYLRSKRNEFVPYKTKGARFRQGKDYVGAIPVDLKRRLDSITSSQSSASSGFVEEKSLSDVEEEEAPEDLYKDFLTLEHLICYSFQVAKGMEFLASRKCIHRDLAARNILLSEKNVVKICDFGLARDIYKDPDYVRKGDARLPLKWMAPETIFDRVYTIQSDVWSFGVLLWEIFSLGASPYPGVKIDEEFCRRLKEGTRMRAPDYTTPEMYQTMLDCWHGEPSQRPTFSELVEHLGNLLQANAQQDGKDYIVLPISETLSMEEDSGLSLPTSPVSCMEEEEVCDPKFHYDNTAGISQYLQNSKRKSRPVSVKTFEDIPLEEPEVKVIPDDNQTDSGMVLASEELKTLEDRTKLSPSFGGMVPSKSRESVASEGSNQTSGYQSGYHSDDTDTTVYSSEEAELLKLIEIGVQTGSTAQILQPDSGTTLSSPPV
In short: (§2)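 Kinase domains or full-length kinases, GST- or His-tagged and expressed in E. coli or baculovirus/High Five cells, transferred 33PO4 from ATP onto plate-bound poly(Glu,Tyr) 4:1 or poly(Arg,Ser) 3:1. After incubation, plates were washed with 0.5% phosphoric acid and counted by liquid scintillation.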

Zap-70 = target: T4, Zap-70 (Homo sapiens, UniProt P43403); test: Kinase inhibition assay (33P transfer), Zap-70; conditions: Table 3; read-out: Zap-1
T4 construct: Kinases are expressed as either kinase domains or full length constructs; made in house
T4 sequence (P43403 1-619): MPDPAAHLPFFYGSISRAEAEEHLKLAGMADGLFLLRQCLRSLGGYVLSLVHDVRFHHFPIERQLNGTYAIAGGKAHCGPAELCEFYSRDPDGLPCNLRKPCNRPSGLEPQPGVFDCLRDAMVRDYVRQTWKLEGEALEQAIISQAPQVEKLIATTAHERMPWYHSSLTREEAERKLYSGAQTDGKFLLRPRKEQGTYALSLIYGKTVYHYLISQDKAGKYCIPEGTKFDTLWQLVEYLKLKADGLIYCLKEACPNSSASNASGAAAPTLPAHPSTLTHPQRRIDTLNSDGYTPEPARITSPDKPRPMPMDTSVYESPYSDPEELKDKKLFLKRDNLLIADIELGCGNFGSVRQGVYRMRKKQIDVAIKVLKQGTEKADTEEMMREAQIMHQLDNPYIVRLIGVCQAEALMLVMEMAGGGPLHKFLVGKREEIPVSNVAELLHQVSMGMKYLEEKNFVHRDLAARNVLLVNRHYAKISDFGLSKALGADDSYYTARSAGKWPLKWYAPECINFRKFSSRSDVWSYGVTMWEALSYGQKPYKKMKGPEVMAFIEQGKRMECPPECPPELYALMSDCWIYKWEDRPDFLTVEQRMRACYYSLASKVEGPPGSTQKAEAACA
In short: as §2

Hck-1 = target: T5, Hck-1 (Homo sapiens, UniProt P08631); test: Kinase inhibition assay (33P transfer), Hck; conditions: Table 6, Hck-1 kinase inhibition class
T5 construct: Kinases are expressed as either kinase domains or full length constructs; made in house
T5 sequence (P08631 whole entry, the tested form may be a part): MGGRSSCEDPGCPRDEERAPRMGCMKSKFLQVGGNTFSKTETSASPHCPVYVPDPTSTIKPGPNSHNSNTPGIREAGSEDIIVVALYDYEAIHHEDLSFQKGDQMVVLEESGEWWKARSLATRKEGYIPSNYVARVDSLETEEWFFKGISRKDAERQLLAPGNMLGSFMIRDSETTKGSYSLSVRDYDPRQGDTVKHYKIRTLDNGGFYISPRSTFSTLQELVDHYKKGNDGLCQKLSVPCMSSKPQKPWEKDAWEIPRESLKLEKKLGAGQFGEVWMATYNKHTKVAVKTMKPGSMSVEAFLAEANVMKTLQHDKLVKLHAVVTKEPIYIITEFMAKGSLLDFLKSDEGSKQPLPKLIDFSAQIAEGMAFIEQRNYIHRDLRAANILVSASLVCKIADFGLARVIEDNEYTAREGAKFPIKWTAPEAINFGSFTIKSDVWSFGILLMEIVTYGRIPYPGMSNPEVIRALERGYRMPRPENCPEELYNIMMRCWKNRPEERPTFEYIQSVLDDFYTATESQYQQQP

PDGFRB = target: T6, PDGFRB (Homo sapiens, UniProt P09619); test: Kinase inhibition assay (33P transfer), PDGFRB; conditions: read-out: PDGFRB-1
T6 construct: Kinases are expressed as either kinase domains or full length constructs; made in house
T6 sequence (P09619 33-1106, species assumed): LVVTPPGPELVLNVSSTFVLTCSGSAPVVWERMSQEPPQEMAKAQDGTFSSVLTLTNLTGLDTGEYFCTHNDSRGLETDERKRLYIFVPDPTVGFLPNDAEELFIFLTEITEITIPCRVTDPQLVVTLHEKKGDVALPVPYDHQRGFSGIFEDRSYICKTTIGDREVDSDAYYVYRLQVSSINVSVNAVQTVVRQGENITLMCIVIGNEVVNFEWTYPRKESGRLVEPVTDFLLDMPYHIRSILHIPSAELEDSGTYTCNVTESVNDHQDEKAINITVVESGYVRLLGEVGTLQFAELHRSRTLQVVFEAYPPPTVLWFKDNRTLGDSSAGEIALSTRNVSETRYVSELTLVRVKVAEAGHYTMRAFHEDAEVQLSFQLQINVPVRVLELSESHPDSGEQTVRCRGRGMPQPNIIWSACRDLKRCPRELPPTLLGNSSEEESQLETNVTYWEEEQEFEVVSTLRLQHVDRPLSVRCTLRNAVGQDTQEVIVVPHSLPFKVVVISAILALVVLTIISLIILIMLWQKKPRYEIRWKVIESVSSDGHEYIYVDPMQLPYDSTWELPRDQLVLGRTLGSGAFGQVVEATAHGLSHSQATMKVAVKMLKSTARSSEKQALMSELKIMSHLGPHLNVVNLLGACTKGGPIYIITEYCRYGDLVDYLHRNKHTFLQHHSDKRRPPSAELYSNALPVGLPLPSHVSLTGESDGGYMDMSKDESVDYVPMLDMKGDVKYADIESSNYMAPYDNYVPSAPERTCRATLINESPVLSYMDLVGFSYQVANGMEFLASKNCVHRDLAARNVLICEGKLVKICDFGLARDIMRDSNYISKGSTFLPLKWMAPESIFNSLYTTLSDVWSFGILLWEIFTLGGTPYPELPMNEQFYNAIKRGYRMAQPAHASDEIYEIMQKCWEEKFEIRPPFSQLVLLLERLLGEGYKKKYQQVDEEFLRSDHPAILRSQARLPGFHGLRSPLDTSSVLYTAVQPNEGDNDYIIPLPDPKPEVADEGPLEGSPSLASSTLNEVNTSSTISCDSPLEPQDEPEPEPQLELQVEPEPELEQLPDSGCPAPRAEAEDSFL

SMILES | IC50 (Itk) | IC50 (Src) | IC50 (Kdr) | IC50 (Zap-70) | IC50 (Hck-1) | IC50 (PDGFRB)
COc1cc(Nc2ncnc(-n3ccc4cc(Cl)ccc43)n2)cc(OC)c1OC [Compound 198] | > 10.9 µM | > 10.9 µM | 0.971 to 5.83 µM | > 10.9 µM | > 10.9 µM | < 0.971 µM
COc1cc(Nc2ncnc(N3CCc4ccccc43)n2)cc(OC)c1OC [Compound 184] | > 11.9 µM | 1.05 to 6.33 µM | < 1.05 µM | > 11.9 µM | > 11.9 µM | < 1.05 µM
COc1cc(Nc2ncnc(Nc3cc(F)ccc3F)n2)cc(OC)c1OC [Compound 316] | > 11.6 µM | 8.99 to 11.6 µM | < 1.03 µM | > 11.6 µM | > 11.6 µM | < 1.03 µM
COc1ccc(Nc2ccc(Nc3ncnc(Nc4cc(OC)c(OC)c(OC)c4)n3)cc2)cc1 [Compound 922] | > 9.48 µM | 0.843 to 5.06 µM | < 0.843 µM | 5.06 to 7.38 µM | > 9.48 µM | 0.843 to 5.06 µM
COc1cc(Nc2ncnc(Nc3ccc(C)c(F)c3)n2)cc(OC)c1OC [Compound 300] | 6.23 to 9.08 µM | < 1.04 µM | < 1.04 µM | > 11.7 µM | > 11.7 µM | < 1.04 µM
COc1cc(Nc2ncnc(-n3ncc4ccccc43)n2)cc(OC)c1OC [Compound 240] | > 11.9 µM | 9.25 to 11.9 µM | 1.06 to 6.34 µM | > 11.9 µM | > 11.9 µM | < 1.06 µM
Cc1cccc(Nc2ncnc(Nc3ccc(O)cc3)n2)c1 [Compound 107] | 1.36 to 8.18 µM | < 1.36 µM | 1.36 to 8.18 µM | > 15.3 µM | 11.9 to 15.3 µM | 1.36 to 8.18 µM
COc1ccc(Sc2ncnc(Nc3cc(OC)c(OC)c(OC)c3)n2)cc1 [Compound 175] | > 11.2 µM | 0.999 to 5.99 µM | < 0.999 µM | > 11.2 µM | > 11.2 µM | < 0.999 µM
COc1cc(Nc2ncnc(Nc3cc(-c4cccs4)n[nH]3)n2)cc(OC)c1OC [Compound 318] | 5.64 to 8.23 µM | < 0.94 µM | < 0.94 µM | > 10.6 µM | 0.94 to 5.64 µM | < 0.94 µM
COc1ccc(Nc2ncnc(Nc3cccc(C)c3)n2)cc1OC [Compound 108] | > 13.3 µM | 1.19 to 7.11 µM | 7.11 to 10.4 µM | > 13.3 µM | > 13.3 µM | 1.19 to 7.11 µM
COc1cc(Nc2ncnc(N(C/C=C/c3ccccc3)c3ccc(Cl)cc3)n2)cc(OC)c1OC [Compound 56] | > 8.93 µM | > 8.93 µM | 0.794 to 4.76 µM | > 8.93 µM | > 8.93 µM | > 8.93 µM
COc1cc(Nc2ncnc(-n3ccc4c(OC)cccc43)n2)cc(OC)c1OC [Compound 238] | > 11 µM | > 11 µM | 0.982 to 5.89 µM | > 11 µM | > 11 µM | 0.982 to 5.89 µM
COc1ccc2c(c1)c(CCNC(C)=O)cn2-c1ncnc(Nc2cc(OC)c(OC)c(OC)c2)n1 [Compound 339] | > 9.14 µM | > 9.14 µM | < 0.812 µM | > 9.14 µM | > 9.14 µM | < 0.812 µM
COc1cc(Nc2ncnc(N(CC(=O)O)c3ccc4c(c3)OCO4)n2)cc(OC)c1OC [Compound 319] | > 9.88 µM | > 9.88 µM | > 9.88 µM | > 9.88 µM | > 9.88 µM | > 9.88 µM
COc1cc(Nc2ncnc(N(c3ccccc3)c3nc4ccccc4[nH]3)n2)cc(OC)c1OC [Compound 335] | > 9.58 µM | 5.11 to 7.45 µM | < 0.852 µM | > 9.58 µM | > 9.58 µM | 7.45 to 9.58 µM
COCCOc1ccc(Nc2ncnc(Nc3ccc(C)c(O)c3)n2)cc1OCCOC [Compound 125] | 5.44 to 7.93 µM | < 0.906 µM | < 0.906 µM | > 10.2 µM | 7.93 to 10.2 µM | < 0.906 µM
COc1cc(Nc2ncnc(-n3ccc4ccc(Cl)cc43)n2)cc(OC)c1OC [Compound 237] | > 10.9 µM | > 10.9 µM | < 0.971 µM | 8.5 to 10.9 µM | > 10.9 µM | > 10.9 µM
COc1cc(Nc2ncnc(-n3cnc4ccccc43)n2)cc(OC)c1OC [Compound 186] | > 11.9 µM | > 11.9 µM | < 1.06 µM | > 11.9 µM | > 11.9 µM | < 1.06 µM
COc1cc(Nc2ncnc(Nc3ccc(Br)c(Cl)c3)n2)cc(OC)c1OC [Compound 936] | 5.14 to 7.5 µM | < 0.857 µM | 0.857 to 5.14 µM | > 9.64 µM | 5.14 to 7.5 µM | < 0.857 µM
COc1cc(Nc2ncnc(-c3ccccc3)n2)cc(OC)c1OC [Compound 970] | > 13.3 µM | > 13.3 µM | < 1.18 µM | > 13.3 µM | > 13.3 µM | 7.09 to 10.3 µM
COc1cc(Nc2ncnc(-n3c(=O)[nH]c4ccccc43)n2)cc(OC)c1OC [Compound 325] | > 11.4 µM | > 11.4 µM | < 1.01 µM | > 11.4 µM | > 11.4 µM | < 1.01 µM
COc1cc(Nc2ncnc(Nc3nnc(-c4ccccc4)[nH]3)n2)cc(OC)c1OC [Compound 311] | > 10.7 µM | > 10.7 µM | 0.951 to 5.71 µM | > 10.7 µM | > 10.7 µM | > 10.7 µM
COc1ccc(Nc2ncnc(-n3c(N)nc4ccccc43)n2)cc1O [Compound 286] | 1.14 to 6.87 µM | 10 to 12.9 µM | < 1.14 µM | > 12.9 µM | > 12.9 µM | 1.14 to 6.87 µM
COc1cc2ccn(-c3ncnc(Nc4cc(OC)c(OC)c(OC)c4)n3)c2cc1OC [Compound 239] | > 10.3 µM | > 10.3 µM | 0.914 to 5.49 µM | > 10.3 µM | > 10.3 µM | > 10.3 µM
COC(=O)c1sccc1Nc1ncnc(Nc2cc(OC)c(OC)c(OC)c2)n1 [Compound 315] | > 10.8 µM | > 10.8 µM | < 0.958 µM | 8.38 to 10.8 µM | > 10.8 µM | 0.958 to 5.75 µM
COCCOc1ccc(Nc2ncnc(-n3c(N)nc4ccccc43)n2)cc1OCCOC [Compound 302] | > 9.97 µM | > 9.97 µM | 0.886 to 5.32 µM | > 9.97 µM | > 9.97 µM | > 9.97 µM
C=CCN(c1ccc(Cl)cc1)c1ncnc(Nc2cc(OC)c(OC)c(OC)c2)n1 [Compound 972] | > 10.5 µM | 0.935 to 5.61 µM | < 0.935 µM | > 10.5 µM | > 10.5 µM | < 0.935 µM
COc1cc(Nc2ncnc(N3CCCc4ccccc43)n2)cc(OC)c1OC [Compound 609] | > 11.4 µM | < 1.02 µM | < 1.02 µM | > 11.4 µM | > 11.4 µM | < 1.02 µM
CCOc1ccc(Nc2ncnc(Nc3ccc(OCc4ccccc4)cc3)n2)cc1OCC [Compound 170] | > 9.84 µM | > 9.84 µM | 0.874 to 5.25 µM | 5.25 to 7.65 µM | > 9.84 µM | > 9.84 µM
COc1cc(Nc2ncnc(N3c4ccc(F)cc4CCC3C)n2)cc(OC)c1OC (stereo not drawn) [Compound 298] | 0.94 to 5.64 µM | 0.94 to 5.64 µM | < 0.94 µM | 8.23 to 10.6 µM | 0.94 to 5.64 µM | < 0.94 µM

From patent US7074789B2, “Kinase inhibitors” (Amgen Inc., priority 1999, dated 2006)
